How the values were obtained:
[1] = system: healthy volunteer; assay: Patient's global impression of improvement (PGI) for sexual events: arousal, orgasm, overall satisfaction; same single-subject study; assay type: in vivo, human
Procedure: (§1) Method. […] (1) Treatment B: […] IR Trz 50 mg t.i.d.; […] Bup 75 mg t.i.d. A washout of 1-4 weeks occurred between each treatment. […] Sexual events were counted, and three domains (sexual arousal, orgasm, and overall satisfaction with the event) were scored. Each of the sexual event variables was converted to a simple patient's global impression of improvement (PGI; improved or not improved today compared to pre-treatment baseline). […] Bup is already recommended as a treatment for HSDD; Trz is not. Thus, Fisher's exact test was applied post-hoc to the PGIs for Treatment B vs. Treatment Llow (Llow) and vs. […] Upon the advice of the independent researcher the subject dichotomized their sexual event results in a simple daily patient's global impression of improvement: improved or not improved today (compared to pre-treatment baseline). The independent researcher, when told that the results were positive for the subject but before seeing any of the data, decided to apply categorical tests to the most obvious comparisons between treatments: for the first two weeks, the second two weeks, and for all four weeks of treatment, low-dose combination of bupropion plus trazodone vs. corresponding dose of bupropion; and high-dose the combination of bupropion plus trazodone vs. same dose of trazodone. The test used for the desire score was a two-tailed paired t test. The test used for the two-category variables was an online two-tailed Fisher's exact test. Both were from the website graphpad.com.*

[2] = system: healthy volunteer; assay: Daily 0-2 sexual desire score in a single-subject sequential four-treatment study (4 weeks each); assay type: in vivo, human; settings: for Sexual desire response (in words): overall
Procedure: as §1

Row | SMILES | Improvements in arousal, % of sexual events ([1]; third and fourth weeks of use) | Improvements in arousal, % of sexual events ([1]; total for all four weeks) | Improvements in arousal, % of sexual events ([1]; weeks 1-2) | Improvements in arousal, fraction of sexual events ([1]; weeks 1-2) | Sexual desire response (in words) [2] | 0-2 Daily Desire Score, % of max. (max. = 28) ([2]; wks 1-2) | 0-2 Daily Desire Score, % of max. (max. = 28) ([2]; wks 3-4)
1 | CC(NC(C)(C)C)C(=O)c1cccc(Cl)c1 (racemic) [Bup, (±)-2-(tert-Butylamino)-1-(3-chlorophenyl)propan-1-one] | 0% | 20% | 40% | ⅖ | intermediate | 32% | 50%
2 | O=c1n(CCCN2CCN(c3cccc(Cl)c3)CC2)nc2ccccn12 [Trz, 2-{3-[4-(3-chlorophenyl)piperazin-1-yl]propyl}[1,2,4]triazolo[4,3-a]pyridin-3(2H)-one] |  |  |  |  | low | 7% | 0, 0%

— patent publication US20140038985A1, “TREATMENT REGIMENS” (S1 Pharmaceuticals, Inc., priority 2011, published 2014)
